# Experimental data as given in PubChem BioAssay (NCI).
#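 The compound was tested at five concentrations on cells cultured in 96-well plates, with a 48-hour exposure period. GI50: concentration for 50% inhibition of growth. TGI denotes the concentration required for complete inhibition of growth.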
# Assays:
# Experiment in all cases: NCI anticancer screen, dose series, 48 h
# RXF 393 renal = system: RXF 393 renal
# SF-295 CNS = system: SF-295 CNS
# NCI-H522 lung = system: NCI-H522 lung
# MDA-MB-231 breast = system: MDA-MB-231 breast
# A549 NSCLC = system: A549 NSCLC
# UACC-257 melanoma = system: UACC-257 melanoma
# PC-3 prostate = system: PC-3 prostate
# LOX IMVI melanoma = system: LOX IMVI melanoma
# SK-MEL-5 melanoma = system: SK-MEL-5 melanoma
# NCI-H23 lung = system: NCI-H23 lung
# SK-MEL-28 melanoma = system: SK-MEL-28 melanoma
# SF-268 CNS = system: SF-268 CNS
# MALME-3M melanoma = system: MALME-3M melanoma
# HCT-116 colon = system: HCT-116 colon
# IGROV1 ovarian = system: IGROV1 ovarian
# A498 renal = system: A498 renal
# HCC-2998 colon = system: HCC-2998 colon
# TK-10 renal = system: TK-10 renal
# SK-MEL-2 melanoma = system: SK-MEL-2 melanoma
# MCF7 breast = system: MCF7 breast
# 786-0 renal = system: 786-0 renal
# MDA-MB-435 = system: MDA-MB-435
# EKVX NSCLC = system: EKVX NSCLC
# HT29 colon = system: HT29 colon
# HCT-15 colon = system: HCT-15 colon
# HOP-62 NSCLC = system: HOP-62 NSCLC
# SF-539 CNS = system: SF-539 CNS
# OVCAR-4 ovarian = system: OVCAR-4 ovarian
# HL-60(TB) leukemia = system: HL-60(TB) leukemia
structure (smiles),measurement,setting,value
O=c1cc(-c2ccccc2)oc2cc(OCCCCNCc3ccccc3)cc(O)c12,GI50,RXF 393 renal,1.91 µM
same,TGI,RXF 393 renal,10.1 µM
same,GI50,SF-295 CNS,11.7 µM
same,TGI,SF-295 CNS,24.4 µM
same,GI50,NCI-H522 lung,13.1 µM
same,TGI,NCI-H522 lung,29.3 µM
same,GI50,MDA-MB-231 breast,7.02 µM
same,TGI,MDA-MB-231 breast,21.3 µM
same,GI50,A549 NSCLC,7.94 µM
same,TGI,A549 NSCLC,21.1 µM
same,GI50,UACC-257 melanoma,2.99 µM
same,TGI,UACC-257 melanoma,9.75 µM
same,GI50,PC-3 prostate,5.01 µM
same,TGI,PC-3 prostate,19.9 µM
same,GI50,LOX IMVI melanoma,3.13 µM
same,TGI,LOX IMVI melanoma,11.2 µM
same,GI50,SK-MEL-5 melanoma,12.2 µM
same,TGI,SK-MEL-5 melanoma,24.7 µM
same,GI50,NCI-H23 lung,13.8 µM
same,TGI,NCI-H23 lung,27.4 µM
same,GI50,SK-MEL-28 melanoma,3.24 µM
same,TGI,SK-MEL-28 melanoma,9.38 µM
same,GI50,SF-268 CNS,10.6 µM
same,TGI,SF-268 CNS,27 µM
same,GI50,MALME-3M melanoma,2.19 µM
same,TGI,MALME-3M melanoma,7.29 µM
same,GI50,HCT-116 colon,4.28 µM
same,TGI,HCT-116 colon,17.2 µM
same,GI50,IGROV1 ovarian,11.4 µM
same,TGI,IGROV1 ovarian,26.6 µM
same,GI50,A498 renal,19.8 µM
same,TGI,A498 renal,36.8 µM
same,GI50,HCC-2998 colon,2.3 µM
same,TGI,HCC-2998 colon,5.74 µM
same,GI50,TK-10 renal,15.5 µM
same,TGI,TK-10 renal,29.5 µM
same,GI50,SK-MEL-2 melanoma,16.3 µM
same,TGI,SK-MEL-2 melanoma,30.2 µM
same,GI50,MCF7 breast,3.43 µM
same,TGI,MCF7 breast,14.9 µM
same,GI50,786-0 renal,4.54 µM
same,TGI,786-0 renal,18.6 µM
same,GI50,MDA-MB-435,7.98 µM
same,TGI,MDA-MB-435,20.5 µM
same,GI50,EKVX NSCLC,12.7 µM
same,TGI,EKVX NSCLC,25.9 µM
same,GI50,HT29 colon,2.95 µM
same,TGI,HT29 colon,12 µM
same,GI50,HCT-15 colon,3.48 µM
same,TGI,HCT-15 colon,12.8 µM
same,GI50,HOP-62 NSCLC,13.2 µM
same,TGI,HOP-62 NSCLC,27.5 µM
same,GI50,SF-539 CNS,11.7 µM
same,TGI,SF-539 CNS,25.3 µM
same,GI50,OVCAR-4 ovarian,8.92 µM
same,TGI,OVCAR-4 ovarian,23.6 µM
same,GI50,HL-60(TB) leukemia,1.12 µM
same,TGI,HL-60(TB) leukemia,3.43 µM
